In US12440833B2, “Sample containers adapted for acoustic ejections and sample preservation and methods thereof” (priority 2011, dated 2025):
Like-named read-outs stand apart in the source and are kept apart here.

Tests used:
TPCK trypsin [1] = target: T1, TPCK trypsin (Bos taurus, UniProt P00760); format: biochemical; conditions: for average fluorescence of wells with trypsin exposed to tubes with immobilized ligand: 12.5 ng trypsin per tube, 120 minutes at room temperature
T1 construct: purchased Thermo Scientific Pierce 23266
T1 sequence (P00760 24-246): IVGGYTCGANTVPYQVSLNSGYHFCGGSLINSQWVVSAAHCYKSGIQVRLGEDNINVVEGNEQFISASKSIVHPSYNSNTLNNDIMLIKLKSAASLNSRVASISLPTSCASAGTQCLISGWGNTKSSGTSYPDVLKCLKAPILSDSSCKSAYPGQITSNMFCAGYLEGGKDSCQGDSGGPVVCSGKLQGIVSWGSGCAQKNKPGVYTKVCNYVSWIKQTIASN
Procedure: Protease activity and the inhibition thereof were measured with a Fluorescent Protease Assay Kit (Thermo Scientific Pierce, catalog number 23266). TRIS-buffered saline (TBS, 25 mM Tris, 0.15 M NaCl, pH 7.2) was reconstituted from dry solids in the kit with deionized water. Trypsin stock solution was freshly prepared by dissolving TPCK trypsin from kit with 1 mL deionized water to make a 50 mg/mL solution. […] Aliquots of 10 μL were stored at −60° C. Individual aliquots of the stock solution were diluted in 1.0 mL of TBS (0.5 mg/mL), and 10 μL of this solution was further diluted in 10 mL of TBS (0.5 μg/mL). This solution was serially diluted 1:1 with TBS to create a trypsin solution of 62.5 ng/mL. The trypsin solution was kept in an ice bath until use. 200 μL of the diluted trypsin (12.5 ng) was added to each prepared polypropylene tube. The solution was aspirated and re-dispensed three times in each tube to assure complete mixing and contact of the solution with the derivatized internal walls of the tubes. A new disposable tip was used for each transfer. After incubation at room temperature for 120 minutes, 100 μL of the trypsin solution from each tube was placed into individual wells of a 96-well, black, flat-bottomed plate (Greiner Bio-one, catalog number 655076, Monroe, N.C.). […] The plate was incubated at room temperature for 95 minutes. […] Increased fluorescence is indicative of trypsin-mediated digestion of the added FTC-casein solution via the decrease of FRET-based fluorescence quenching that exists in the intact protein.

TPCK trypsin [2] = target: T1, TPCK trypsin; format: biochemical; conditions: for average fluorescence of wells with trypsin exposed to tubes with immobilized ligand: 12.5 ng trypsin per tube, 120 minutes at room temperature; remark: listed apart in the source
Procedure: Protease activity and the inhibition thereof were measured with a Fluorescent Protease Assay Kit (Thermo Scientific Pierce, catalog number 23266). TRIS-buffered saline (TBS, 25 mM Tris, 0.15 M NaCl, pH 7.2) was reconstituted from dry solids in the kit with deionized water. Trypsin stock solution was freshly prepared by dissolving TPCK trypsin from kit with 1 mL deionized water to make a 50 mg/mL solution. Aliquots of 10 μL were stored at −60° C. Individual aliquots of the stock solution were diluted in 1.0 mL of TBS (0.5 mg/mL), and 10 μL of this solution was further diluted in 10 mL of TBS (0.5 μg/mL). This solution was serially diluted 1:1 with TBS to create a trypsin solution of 62.5 ng/mL. The trypsin solution was kept in an ice bath until use. 200 μL of the diluted trypsin (12.5 ng) was added to each prepared polypropylene tube. The solution was aspirated and re-dispensed three times in each tube to assure complete mixing and contact of the solution with the derivatized internal walls of the tubes. A new disposable tip was used for each transfer. After incubation at room temperature for 120 minutes, 100 μL of the trypsin solution from each tube was placed into individual wells of a 96-well, black, flat-bottomed plate (Greiner Bio-one, catalog number 655076, Monroe, N.C.). FTC-casein—(casein protein modified by the addition of fluorescein isothiocyanate, a part of the Fluorescent Protease Assay Kit) solution in TBS buffer was freshly prepared and 100 μL of this solution was added to each well and mixed via aspiration and dispense. The plate was incubated at room temperature for 95 minutes. The fluorescence of the samples in the 96-well plate was measured on a SpectraFluor Plus fluorescence spectrometer (Tecan, Mannedorf, Switzerland) 5 minutes after the solution was added and additionally after 10, 20, 40, 60 and 95 minutes. Increased fluorescence is indicative of trypsin-mediated digestion of the added FTC-casein solution via the decrease of FRET-based fluorescence quenching that exists in the intact protein.

[3] = Example A, ligand immobilized on tube wall, background 5382 RFU
[4] = Example B, ligand immobilized on tube wall, background 5382 RFU
[5] = 0.1 mM TLCK in the well (not immobilized), after 20 minutes, background 5382 RFU

Row | Compound | average fluorescence of wells with trypsin exposed to tubes with immobilized ligand (TPCK trypsin [1]; [3]) | average fluorescence of wells with trypsin exposed to tubes with immobilized ligand (TPCK trypsin [2]; [4]) | fluorescence of wells that contained FTC-casein, trypsin and inhibitor (TPCK trypsin [1]; [5]) | inhibition of trypsin activity (TPCK trypsin [1]; Example A, ligand immobilized on tube wall, trypsin exposed 120 minutes at room temperature) | fluorescence of wells that contained FTC-casein, trypsin and inhibitor (TPCK trypsin [2]; [5]) | inhibition of trypsin activity (TPCK trypsin [2]; Example B, ligand immobilized on tube wall, trypsin exposed 120 minutes at room temperature)
1 | NCCCO [AP Ligand, 3-amino-1-propanol] | 21289 RFU | 20847 RFU |  |  |  | 
2 | Cc1ccc(S(=O)(=O)N[C@@H](CCCCN)C(=O)CCl)cc1.Cl [TLCK Ligand, N-alpha-tosyl-L-lysine chloromethyl ketone hydrochloride] | 15521 RFU | 13386 RFU | 6841 RFU | 35% | 6841 RFU | 48%
